# Source: a compilation of properties of binary mixtures (doi:10.1007/s10953-006-9073-6)
# Assay: xn = mol fraction of the nth substance listed
# Conditions: 298.15 K, 101 kPa
speed of sound (x2 = 0.1874) [m/s],speed of sound (x2 = 0.4815) [m/s],speed of sound (x2 = 0.6209) [m/s],speed of sound (x2 = 0.7217) [m/s],speed of sound (x2 = 0.8982) [m/s],speed of sound (x2 = 0.9373) [m/s],speed of sound (x2 = 0.2213) [m/s],speed of sound (x2 = 0.308) [m/s],speed of sound (x2 = 0.3852) [m/s],speed of sound (x2 = 0.5017) [m/s],speed of sound (x2 = 0.5976) [m/s],speed of sound (x2 = 0.6987) [m/s],speed of sound (x2 = 0.8012) [m/s],speed of sound (x2 = 0.8967) [m/s],speed of sound (x2 = 0.9504) [m/s],Compound
1744.8,1598.2,1515,1443,1279.1,1232.5,–,–,–,–,–,–,–,–,–,CCCC[n+]1ccn(C)c1.[Cl-] + CCO
–,–,–,–,–,–,1838.3,1828.2,1831.3,1845,1859.6,1872.8,1881.5,1853.7,1754.7,CCCC[n+]1ccn(C)c1.[Cl-] + O
